Laboratory results taken from BindingDB's records for doi:10.1021/jm5015814 (Slovak Academy of Sciences, 2015).

Target: Aldehyde reductase AKR1A1 (Rattus norvegicus)
Assay: Inhibition of Wistar rat kidney aldehyde reductase using D-glucuronate as substrate by spectrophotometry

**Q.** `CC(C)(C)C(=O)c1cn(CC(=O)O)c2ccccc12` was tested. Which IC50 did it give?
**A.** 68.4 µM

**Q.** How did the IC50 turn out when `O=C(O)Cn1c2ccccc2c2nc3ccccc3nc21` was run?
**A.** 24.8 µM

**Q.** `O=C(O)Cn1ccc2ccccc21` [CHEBI:72814] was tested. Which IC50 did it give?
**A.** 80.2 µM

**Q.** For `CCCNC(=O)CSc1nnc2c3cc(C)ccc3n(CC(=O)O)c2n1`, which IC50 is on record?
**A.** 19.6 µM
